Measured values reported in patent US20250268854A1, “2-AMINO-5,5-DIMETHYLHEXANOIC ACID DERIVATIVES AS SORTILIN MODULATORS FOR USE IN THE TREATMENT OF DISEASE OF THE CENTRAL NERVOUS SYSTEM” (c/o Vesper Bio ApS, priority 2021, published 2025).
Counter-ions that a name gives are not always drawn.

What follows are compounds tested against h-Sortilin (Homo sapiens (Human), UniProt Q99523) (assay: Neurotensin (NTS) scintillation proximity assay (SPA): displacement of [3H]-neurotensin binding). Conditions: 150 nM 6his-Sortilin, 5 nM [3H]-Neurotensin; average of at least 2 determinations.
Sequence of h-Sortilin (Q99523 78-831): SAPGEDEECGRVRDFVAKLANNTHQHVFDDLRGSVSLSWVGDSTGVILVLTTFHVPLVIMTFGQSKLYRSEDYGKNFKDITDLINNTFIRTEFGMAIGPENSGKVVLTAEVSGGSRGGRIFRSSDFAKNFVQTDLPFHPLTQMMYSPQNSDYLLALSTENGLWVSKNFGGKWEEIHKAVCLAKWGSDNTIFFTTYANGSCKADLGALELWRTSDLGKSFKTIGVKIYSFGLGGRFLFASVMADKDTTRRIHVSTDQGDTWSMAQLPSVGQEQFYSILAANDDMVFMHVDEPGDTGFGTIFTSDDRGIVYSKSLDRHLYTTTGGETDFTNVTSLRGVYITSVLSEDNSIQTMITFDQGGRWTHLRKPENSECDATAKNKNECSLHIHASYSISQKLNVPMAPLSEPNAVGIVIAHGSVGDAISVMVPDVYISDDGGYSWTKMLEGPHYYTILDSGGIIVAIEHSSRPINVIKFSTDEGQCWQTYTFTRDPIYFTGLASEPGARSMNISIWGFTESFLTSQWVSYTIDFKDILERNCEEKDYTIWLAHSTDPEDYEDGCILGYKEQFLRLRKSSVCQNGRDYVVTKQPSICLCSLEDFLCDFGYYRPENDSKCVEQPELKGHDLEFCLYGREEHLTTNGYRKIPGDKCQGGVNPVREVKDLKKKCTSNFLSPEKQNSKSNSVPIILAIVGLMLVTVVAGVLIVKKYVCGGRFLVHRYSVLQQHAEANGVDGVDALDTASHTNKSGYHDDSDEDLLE
Procedure: The exemplified compounds of the invention were tested in a Neurotensin (NTS) scintillation proximity assay (SPA). NTS, which is a 13 amino acid neuropeptide, is a sortilin ligand. The IC50 is a measure of the amount of the compound required to inhibit the binding of NTS to sortilin by 50%. […] Compound affinity was determined by measuring the displacement of [^3H]-neurotensin binding to h-Sortilin in SPA format. […] IC50 values were calculated by nonlinear regression using the sigmoid concentration-response (variable slope) using CDD Vault software. All values reported are average of at least 2 determinations.

Compound	IC50 [nM]
Cc1cc(=O)oc2c(CN[C@@H](CCC(C)(C)C)C(=O)O)c(O)ccc12 [Example 1, (S)-2-(((7-hydroxy-4-methyl-2-oxo-2H-chromen-8-yl)methyl)amino)-5,5-dimethylhexanoic acid]	75
Cc1cc2cccc(CN[C@@H](CCC(C)(C)C)C(=O)O)c2cn1 [Example 4, (2S)-5,5-dimethyl-2-{[(3-methylisoquinolin-8-yl)methyl]amino}hexanoic acid]	660
CC(C)(C)CC[C@H](NCc1cccc2ccncc12)C(=O)O [Example 7, (2S)-2-{[(isoquinolin-8-yl)methyl]amino}-5,5-dimethylhexanoic acid]	950
CC(C)(C)CC[C@H](NC(c1ccccc1)c1ccccc1)C(=O)O [Example 8, (S)-2-(benzhydrylamino)-5,5-dimethylhexanoic acid hydrochloride]	270
CC(C)(C)CC[C@H](NCc1ccccc1OC(F)(F)F)C(=O)O [Example 10, (2S)-5,5-dimethyl-2-({[2-(trifluoromethoxy)phenyl]methyl}amino)hexanoic acid]	975
CC(C)(C)CC[C@H](NCc1ccccc1F)C(=O)O [Example 11, (2S)-2-{[(2-fluorophenyl)methyl]amino}-5,5-dimethylhexanoic acid]	1830
CC(C)(C)CC[C@H](NCc1c(F)cccc1F)C(=O)O [Example 12, (2S)-2-{[(2,6-difluorophenyl)methyl]amino}-5,5-dimethylhexanoic acid]	2840
CC(C)(C)CC[C@H](NCc1ccccc1C(F)(F)F)C(=O)O [Example 13, (2S)-5,5-dimethyl-2-({[2-(trifluoromethyl)phenyl]methyl}amino)hexanoic acid]	1020
C[C@@H](N[C@@H](CCC(C)(C)C)C(=O)O)c1ccccc1 [Example 14, (S)-5,5-dimethyl-2-(((R)-1-phenylethyl)amino)hexanoic acid hydrochloride]	610
C[C@H](N[C@@H](CCC(C)(C)C)C(=O)O)c1ccccc1 [Example 15, (S)-5,5-dimethyl-2-(((S)-1-phenylethyl)amino)hexanoic acid hydrochloride]	3480
CC(C)(C)CC[C@H](N[C@@H](c1ccccc1)C(F)(F)F)C(=O)O [Example 16, (S)-5,5-dimethyl-2-(((S)-2,2,2-trifluoro-1-phenylethyl)amino)hexanoic acid]	1480
CC(C)(C)CC[C@H](N[C@@H](c1ccccc1)C(F)F)C(=O)O [Example 17, (2S)-2-{[(1S)-2,2-difluoro-1-phenylethyl]amino}-5,5-dimethylhexanoic acid]	1610
CC(C)(C)CC[C@H](N[C@H](c1ccccc1)C(F)(F)F)C(=O)O [Example 18, (S)-5,5-dimethyl-2-(((R)-2,2,2-trifluoro-1-phenylethyl)amino)hexanoic acid]	725
CC(C)(C)CC[C@H](N[C@H](c1ccccc1)C(F)F)C(=O)O [Example 19, (2S)-2-{[(1R)-2,2-difluoro-1-phenylethyl]amino}-5,5-dimethylhexanoic acid]	565
CC(C)(C)CC[C@H](NC1=Nc2ccccc2Oc2ccccc21)C(=O)O [Example 20, (2S)-5,5-dimethyl-2-({2-oxa-9-azatricyclo[9.4.0.0^3,8]pentadeca-1(11),3(8),4,6,9,12,14-heptaen-10-yl}amino)hexanoic acid]	1490
CC(C)(C)CC[C@H](NCc1cccc(CO)c1)C(=O)O [Example 25, (2S)-2-({[3-(hydroxymethyl)phenyl]methyl}amino)-5,5-dimethylhexanoic acid]	1380
CC(C)(C)CC[C@H](NCc1cc(Cl)cc(Cl)c1)C(=O)O [Example 32, (2S)-2-{[(3,5-dichlorophenyl)methyl]amino}-5,5-dimethylhexanoic acid]	840

Compound	IC50 [nM]
CC(C)(C)CC[C@H](NCc1ccc2ccccc2n1)C(=O)O [Example 36, (2S)-5,5-dimethyl-2-{[(quinolin-2-yl)methyl]amino}hexanoic acid]	1600
COc1ccc(CN[C@@H](CCC(C)(C)C)C(=O)O)cc1F [Example 37, (2S)-2-{[(3-fluoro-4-methoxyphenyl)methyl]amino}-5,5-dimethylhexanoic acid]	710
CC(C)(C)CC[C@H](NCc1cccc2c1CCCC2)C(=O)O [Example 39, (2S)-5,5-dimethyl-2-{[(5,6,7,8-tetrahydronaphthalen-1-yl)methyl]amino}hexanoic acid]	360
CC(C)(C)CC[C@H](NCc1ccc2nccnc2c1)C(=O)O [Example 42, (2S)-5,5-dimethyl-2-{[(quinoxalin-6-yl)methyl]amino}hexanoic acid]	400
CC(C)(C)CC[C@H](NCc1cnc2[nH]ccc2c1)C(=O)O [Example 43, (2S)-5,5-dimethyl-2-[({1H-pyrrolo[2,3-b]pyridin-5-yl}methyl)amino]hexanoic acid]	470
CC(C)(C)CC[C@H](NCc1ccnc2[nH]ccc12)C(=O)O [Example 44, (2S)-5,5-dimethyl-2-[({1H-pyrrolo[2,3-b]pyridin-4-yl}methyl)amino]hexanoic acid]	850
CC(C)(C)CC[C@H](NCc1cccc2cccnc12)C(=O)O [Example 47, (2S)-5,5-dimethyl-2-{[(quinolin-8-yl)methyl]amino}hexanoic acid]	1950
CC(C)(C)CC[C@H](NCc1cccc2ncccc12)C(=O)O [Example 48, (2S)-5,5-dimethyl-2-{[(quinolin-5-yl)methyl]amino}hexanoic acid]	1060
COc1ccc2ccccc2c1CN[C@@H](CCC(C)(C)C)C(=O)O [Example 49, (2S)-2-{[(2-methoxynaphthalen-1-yl)methyl]amino}-5,5-dimethylhexanoic acid]	1990
CC(C)(C)CC[C@H](NCc1ccc2scnc2c1)C(=O)O [Example 51, (2S)-2-{[(1,3-benzothiazol-5-yl)methyl]amino}-5,5-dimethylhexanoic acid]	320
Cn1nccc1CN[C@@H](CCC(C)(C)C)C(=O)O [Example 52, (2S)-5,5-dimethyl-2-{[(1-methyl-1H-pyrazol-5-yl)methyl]amino}hexanoic acid]	1560
CC(C)(C)CC[C@H](NCc1ccc2ncsc2c1)C(=O)O [Example 53, (2S)-2-{[(1,3-benzothiazol-6-yl)methyl]amino}-5,5-dimethylhexanoic acid]	590
Cn1ncc2ccc(CN[C@@H](CCC(C)(C)C)C(=O)O)cc21 [Example 54, (2S)-5,5-dimethyl-2-{[(1-methyl-1H-indazol-6-yl)methyl]amino}hexanoic acid]	870
CC(C)(C)CC[C@H](NCc1ccccc1-c1ccncc1)C(=O)O [Example 56, (2S)-5,5-dimethyl-2-({[2-(pyridin-4-yl)phenyl]methyl}amino)hexanoic acid]	1910
CC(C)(C)CC[C@H](NCc1cccc(-n2ccnc2)c1)C(=O)O [Example 57, (2S)-2-({[3-(1H-imidazol-1-yl)phenyl]methyl}amino)-5,5-dimethylhexanoic acid]	1290
CC(C)(C)CC[C@H](NCc1ccncc1)C(=O)O [Example 58, (2S)-5,5-dimethyl-2-{[(pyridin-4-yl)methyl]amino}hexanoic acid]	810
CC(C)(C)CC[C@H](NCc1ccccc1CO)C(=O)O [Example 59, (S)-2-((2-(hydroxymethyl)benzyl)amino)-5,5-dimethylhexanoic acid hydrochloride]	1280
